Data published in US10721934B2, “Enhanced preservative” (Arch Chemicals, Inc., priority 2013, dated 2020).

Tests used:
Assay type in all cases: cell-based
[1] = tested on: Pseudomonas aeruginosa ATCC 15442; test: Minimum Inhibitory Concentration (MIC) test, 96 well microtiter plate; settings: single chemical
Aspergillus brasiliensis = test: MIC test, 96 well microtiter plate; settings: single chemical
Summary of the method: (§1)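 Broth microdilution MIC in broth suited to each organism; actives serially diluted in sterile water, starting concentration set by efficacy range. Inoculum in 2× broth added per well to approximately 5×10^5 final. Amines also tested combined with a pyrithione and two isothiazolinones.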

Aureobasidium pullulans = test: MIC test, 96 well microtiter plate; settings: single chemical
Summary of the method: as §1

Candida albicans = test: MIC test, 96 well microtiter plate; settings: single chemical
Summary of the method: as §1

Escherichia coli = test: MIC test, 96 well microtiter plate; settings: single chemical
Summary of the method: as §1

Staphylococcus aureus = test: MIC test, 96 well microtiter plate; settings: single chemical
Summary of the method: as §1

[2] = tested on: mixed bacterial inoculum (Pseudomonas aeruginosa, Enterobacter cloacae, Escherichia coli, Acinetobacter calcoaceticus); test: Repeated inoculation of standard acrylic paint, streak plate rating
Summary of the method: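 Acrylic paint containing pyrithione, isothiazolinone and biocide enhancing agent, alone or mixed at varied concentrations, was challenged three times with an aqueous suspension of the four bacteria in equal proportions. Samples were streak plated 24, 48 and 72 h after inoculation and the plates rated for growth.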

`O=c1[nH]sc2ccccc12` [BIT, 1,2 Benzisothiazolin-3-one] was tested, and the “Minimum Inhibitory Concentration” value [1] was 32.5 ppm, the “Minimum Inhibitory Concentration” value (Aspergillus brasiliensis) was 32.5 ppm and the “Minimum Inhibitory Concentration” value (Aureobasidium pullulans) was 4.1 ppm. The “Minimum Inhibitory Concentration” value (Candida albicans) was 8.1 ppm, the “Minimum Inhibitory Concentration” value (Escherichia coli) was 6.1 ppm and the “Minimum Inhibitory Concentration” value (Staphylococcus aureus) was 8.1 ppm. The streak plate rating ([2]; Set Five, BIT 50 ppm, 1st inoculation 24 h) was 5 (>45 viable microorganisms Severely contaminated), the streak plate rating ([2]; Set Five, BIT 50 ppm, 1st inoculation 48 h) was 5 (>45 viable microorganisms Severely contaminated) and the streak plate rating ([2]; Set Five, BIT 50 ppm, 1st inoculation 72 h) was 5 (>45 viable microorganisms Severely contaminated). The streak plate rating ([2]; Set Five, BIT 50 ppm, 2nd inoculation 24 h) was 5 (>45 viable microorganisms Severely contaminated), the streak plate rating ([2]; Set Five, BIT 50 ppm, 2nd inoculation 48 h) was 5 (>45 viable microorganisms Severely contaminated) and the streak plate rating ([2]; Set Five, BIT 50 ppm, 2nd inoculation 72 h) was 5 (>45 viable microorganisms Severely contaminated). For the same compound, the streak plate rating ([2]; Set Five, BIT 50 ppm, 3rd inoculation 24 h) was 5 (>45 viable microorganisms Severely contaminated), the streak plate rating ([2]; Set Five, BIT 50 ppm, 3rd inoculation 48 h) was 5 (>45 viable microorganisms Severely contaminated) and the streak plate rating ([2]; Set Five, BIT 50 ppm, 3rd inoculation 72 h) was 5 (>45 viable microorganisms Severely contaminated). For the same compound, the streak plate rating ([2]; Set Four, BIT 50 ppm, 1st inoculation 24 h) was 5 (>45 viable microorganisms Severely contaminated), the streak plate rating ([2]; Set Four, BIT 50 ppm, 1st inoculation 48 h) was 5 (>45 viable microorganisms Severely contaminated) and the streak plate rating ([2]; Set Four, BIT 50 ppm, 1st inoculation 72 h) was 5 (>45 viable microorganisms Severely contaminated). For the same compound, the streak plate rating ([2]; Set Four, BIT 50 ppm, 2nd inoculation 24 h) was 5 (>45 viable microorganisms Severely contaminated), the streak plate rating ([2]; Set Four, BIT 50 ppm, 2nd inoculation 48 h) was 5 (>45 viable microorganisms Severely contaminated) and the streak plate rating ([2]; Set Four, BIT 50 ppm, 2nd inoculation 72 h) was 5 (>45 viable microorganisms Severely contaminated). For the same compound, the streak plate rating ([2]; Set Four, BIT 50 ppm, 3rd inoculation 24 h) was 5 (>45 viable microorganisms Severely contaminated), the streak plate rating ([2]; Set Four, BIT 50 ppm, 3rd inoculation 48 h) was 5 (>45 viable microorganisms Severely contaminated) and the streak plate rating ([2]; Set Four, BIT 50 ppm, 3rd inoculation 72 h) was 5 (>45 viable microorganisms Severely contaminated). The streak plate rating ([2]; Set One, BIT 60 ppm, 1st inoculation 24 h) was 5 (>45 viable microorganisms Severely contaminated), the streak plate rating ([2]; Set One, BIT 60 ppm, 1st inoculation 48 h) was 5 (>45 viable microorganisms Severely contaminated) and the streak plate rating ([2]; Set One, BIT 60 ppm, 1st inoculation 72 h) was 5 (>45 viable microorganisms Severely contaminated). For the same compound, the streak plate rating ([2]; Set One, BIT 60 ppm, 2nd inoculation 24 h) was 5 (>45 viable microorganisms Severely contaminated), the streak plate rating ([2]; Set One, BIT 60 ppm, 2nd inoculation 48 h) was 5 (>45 viable microorganisms Severely contaminated) and the streak plate rating ([2]; Set One, BIT 60 ppm, 3rd inoculation 24 h) was 5 (>45 viable microorganisms Severely contaminated). The streak plate rating ([2]; Set One, BIT 60 ppm, 3rd inoculation 48 h) was 5 (>45 viable microorganisms Severely contaminated), the streak plate rating ([2]; Set One, BIT 60 ppm, 3rd inoculation 72 h) was 5 (>45 viable microorganisms Severely contaminated) and the streak plate rating ([2]; Set One, BIT 120 ppm, 1st inoculation 24 h) was 1 (1-5 viable microorganisms Very lightly contaminated). The streak plate rating ([2]; Set One, BIT 120 ppm, 1st inoculation 48 h) was 3 (16-30 viable microorganisms Moderately contaminated), the streak plate rating ([2]; Set One, BIT 120 ppm, 1st inoculation 72 h) was 3 (16-30 viable microorganisms Moderately contaminated) and the streak plate rating ([2]; Set One, BIT 120 ppm, 2nd inoculation 24 h) was 5 (>45 viable microorganisms Severely contaminated). The streak plate rating ([2]; Set One, BIT 120 ppm, 2nd inoculation 48 h) was 5 (>45 viable microorganisms Severely contaminated), the streak plate rating ([2]; Set One, BIT 120 ppm, 3rd inoculation 24 h) was 5 (>45 viable microorganisms Severely contaminated) and the streak plate rating ([2]; Set One, BIT 120 ppm, 3rd inoculation 48 h) was 5 (>45 viable microorganisms Severely contaminated). The streak plate rating ([2]; Set One, BIT 120 ppm, 3rd inoculation 72 h) was 5 (>45 viable microorganisms Severely contaminated), the streak plate rating ([2]; Set Three, BIT 50 ppm, 1st inoculation 24 h) was 5 (>45 viable microorganisms Severely contaminated) and the streak plate rating ([2]; Set Three, BIT 50 ppm, 1st inoculation 48 h) was 5 (>45 viable microorganisms Severely contaminated). For the same compound, the streak plate rating ([2]; Set Three, BIT 50 ppm, 1st inoculation 72 h) was 5 (>45 viable microorganisms Severely contaminated), the streak plate rating ([2]; Set Three, BIT 50 ppm, 2nd inoculation 24 h) was 5 (>45 viable microorganisms Severely contaminated) and the streak plate rating ([2]; Set Three, BIT 50 ppm, 2nd inoculation 48 h) was 5 (>45 viable microorganisms Severely contaminated). For the same compound, the streak plate rating ([2]; Set Three, BIT 50 ppm, 2nd inoculation 72 h) was 5 (>45 viable microorganisms Severely contaminated), the streak plate rating ([2]; Set Three, BIT 50 ppm, 3rd inoculation 24 h) was 5 (>45 viable microorganisms Severely contaminated) and the streak plate rating ([2]; Set Three, BIT 50 ppm, 3rd inoculation 48 h) was 5 (>45 viable microorganisms Severely contaminated). For the same compound, the streak plate rating ([2]; Set Three, BIT 50 ppm, 3rd inoculation 72 h) was 5 (>45 viable microorganisms Severely contaminated), the streak plate rating ([2]; Set Two, BIT 25 ppm, 1st inoculation 24 h) was 5 (>45 viable microorganisms Severely contaminated) and the streak plate rating ([2]; Set Two, BIT 25 ppm, 1st inoculation 48 h) was 5 (>45 viable microorganisms Severely contaminated). For the same compound, the streak plate rating ([2]; Set Two, BIT 25 ppm, 1st inoculation 72 h) was 5 (>45 viable microorganisms Severely contaminated), the streak plate rating ([2]; Set Two, BIT 25 ppm, 2nd inoculation 24 h) was 5 (>45 viable microorganisms Severely contaminated) and the streak plate rating ([2]; Set Two, BIT 25 ppm, 2nd inoculation 48 h) was 5 (>45 viable microorganisms Severely contaminated). The streak plate rating ([2]; Set Two, BIT 25 ppm, 2nd inoculation 72 h) was 5 (>45 viable microorganisms Severely contaminated), the streak plate rating ([2]; Set Two, BIT 25 ppm, 3rd inoculation 24 h) was 5 (>45 viable microorganisms Severely contaminated) and the streak plate rating ([2]; Set Two, BIT 25 ppm, 3rd inoculation 48 h) was 5 (>45 viable microorganisms Severely contaminated). The streak plate rating ([2]; Set Two, BIT 25 ppm, 3rd inoculation 72 h) was 5 (>45 viable microorganisms Severely contaminated), the streak plate rating ([2]; Set Two, BIT 50 ppm, 1st inoculation 24 h) was 5 (>45 viable microorganisms Severely contaminated) and the streak plate rating ([2]; Set Two, BIT 50 ppm, 1st inoculation 48 h) was 5 (>45 viable microorganisms Severely contaminated). The streak plate rating ([2]; Set Two, BIT 50 ppm, 1st inoculation 72 h) was 5 (>45 viable microorganisms Severely contaminated), the streak plate rating ([2]; Set Two, BIT 50 ppm, 2nd inoculation 24 h) was 5 (>45 viable microorganisms Severely contaminated) and the streak plate rating ([2]; Set Two, BIT 50 ppm, 2nd inoculation 48 h) was 5 (>45 viable microorganisms Severely contaminated). The streak plate rating ([2]; Set Two, BIT 50 ppm, 2nd inoculation 72 h) was 5 (>45 viable microorganisms Severely contaminated), the streak plate rating ([2]; Set Two, BIT 50 ppm, 3rd inoculation 24 h) was 5 (>45 viable microorganisms Severely contaminated) and the streak plate rating ([2]; Set Two, BIT 50 ppm, 3rd inoculation 48 h) was 5 (>45 viable microorganisms Severely contaminated). For the same compound, the streak plate rating ([2]; Set Two, BIT 50 ppm, 3rd inoculation 72 h) was 5 (>45 viable microorganisms Severely contaminated).
